Results from publication PMC6768063 (Journal of computer-aided molecular design, 2019).

Experiments:
D2 receptor [1] = biological target: T1, D2 receptor (Homo sapiens, UniProt P14416); assay: calcium flux assay; type: cell-based; conditions: for EC50: read-out: EC50, agonist effect (calcium flux), D2/CHO-K1 cells, agonist mode
D2 receptor [2] = biological target: T1, D2 receptor; conditions: cited from earlier work
D1 receptor [3] = biological target: T2, D1 receptor (Homo sapiens, UniProt P21728); assay: cAMP assay; type: cell-based; conditions: for EC50: read-out: EC50, agonist effect (cAMP production), CHO-K1/D1 cells, agonist mode
T2 sequence (P21728 whole entry): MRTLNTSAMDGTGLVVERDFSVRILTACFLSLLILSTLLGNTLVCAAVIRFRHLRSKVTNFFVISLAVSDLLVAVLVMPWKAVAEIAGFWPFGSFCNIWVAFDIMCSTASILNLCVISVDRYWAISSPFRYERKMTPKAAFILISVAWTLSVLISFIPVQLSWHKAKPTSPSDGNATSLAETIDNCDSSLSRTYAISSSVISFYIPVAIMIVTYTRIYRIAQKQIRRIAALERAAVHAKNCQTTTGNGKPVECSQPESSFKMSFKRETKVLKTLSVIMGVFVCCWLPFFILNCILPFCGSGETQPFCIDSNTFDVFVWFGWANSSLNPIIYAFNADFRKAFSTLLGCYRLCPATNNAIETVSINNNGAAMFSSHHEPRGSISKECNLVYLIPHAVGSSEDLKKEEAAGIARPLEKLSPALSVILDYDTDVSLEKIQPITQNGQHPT

5-HT1A receptor = conditions: cited from earlier work
D2 receptor [4] = biological target: T1, D2 receptor; conditions: cited from earlier work; remark: listed apart in the source
D1 receptor [5] = biological target: T2, D1 receptor; conditions: cited from earlier work
D3 receptor = conditions: cited from earlier work

T1 sequence (P14416 whole entry): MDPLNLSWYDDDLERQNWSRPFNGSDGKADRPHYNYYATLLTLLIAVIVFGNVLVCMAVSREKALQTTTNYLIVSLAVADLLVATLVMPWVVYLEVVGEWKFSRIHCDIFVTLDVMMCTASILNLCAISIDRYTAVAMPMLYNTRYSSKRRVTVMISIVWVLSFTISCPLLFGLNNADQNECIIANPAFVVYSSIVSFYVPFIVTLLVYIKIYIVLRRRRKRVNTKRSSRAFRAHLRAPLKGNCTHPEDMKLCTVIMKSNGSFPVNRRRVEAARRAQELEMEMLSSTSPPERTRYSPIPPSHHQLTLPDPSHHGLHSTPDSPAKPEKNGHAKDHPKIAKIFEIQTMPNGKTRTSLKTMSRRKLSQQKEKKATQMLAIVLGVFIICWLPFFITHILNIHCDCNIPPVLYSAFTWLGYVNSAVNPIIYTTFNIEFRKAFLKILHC

Q: With `CN1CCc2cc(Cl)c(O)cc2[C@@H](c2ccccc2)C1` [SCH23390, reference compound] as the compound, how does the IC50 (D2 receptor [1]) read?
A: 4.06 µM

Q: Which “binding affinity for the D2 receptor (in words)” value (D2 receptor [2]) does the source give for `COc1cc2c(cc1OC)[C@H]1Cc3ccc(OC)c(OC)c3CN1CC2` [d-THP] here?
A: low or absent affinity

Q: Which “affinity against D1 receptor (in words)” value (D1 receptor [3]; based on the cAMP assay) does the source give for `COc1ccc2c(c1O)CN1CCc3cc4c(cc3C1C2)OCO4` (stereo not drawn) [d-TU, Tetrahydroberberrubine] here?
A: no affinity

Q: And the EC50 (D1 receptor [3])?
A: > 10 µM

Q: What about the “affinity against D2 receptor (in words)” value (D2 receptor [1]; based on the calcium flux assay) of the same compound?
A: no affinity

Q: And the EC50 (D2 receptor [1])?
A: > 10 µM

Q: For `COc1cc2c(cc1OC)[C@@H]1Cc3ccc(OC)c(OC)c3CN1CC2` [l-THP, l-tetrahydropalmatine], which “binding affinity for the D2 receptor (in words)” value (D2 receptor [2]) is on record?
A: high binding affinity

Q: Which results are given for `COc1ccc2c(c1O)CN1CCc3cc4c(cc3C1C2)OCO4` (stereo not drawn) [l-TU, Tetrahydroberberrubine]?
A: binding affinity for 5-HT1A receptor (in words) (5-HT1A receptor): high binding affinities; binding affinity for D2 receptor (in words) (D2 receptor [4]): high binding affinities; EC50 (D1 receptor [3]): > 10 µM; binding affinity for D1 receptor (in words) (D1 receptor [5]): high binding affinities; binding affinity for D3 receptor (in words) (D3 receptor): high binding affinities; EC50 (D2 receptor [1]): > 10 µM
